Source: US20050107456A1, “Substituted pyrazolines for use as pesticides” (priority 2002, published 2005)
Like-named read-outs stand apart in the source and are kept apart here.

Assays:
[1] = logP determination by HPLC on a reversed-phase column (EEC Directive 79/831 Annex V.A8); assay type: physicochemical; settings: for chromatographic logP: read-out: logP (pH2)
Protocol: The logP values given in the Preparation Examples and the tables above are determined in accordance with EEC Directive 79/831 Annex V.A8 by HPLC (High Performance Liquid Chromatography) on a reversed-phase column (C 18). Temperature: 43° C.
The determination is carried out in the acidic range at pH 2.3 using the mobile phases 0.1% aqueous phosphoric acid and acetonitrile; linear gradient from 10% acetonitrile to 90% acetonitrile.
Calibration is carried out using unbranched alkan-2-ones (having 3 to 16 carbon atoms) with known logP values (determination of the logP values by the retention times using linear interpolation between two successive alkanones).

[2] = test system: caterpillars of the army worm (Spodoptera frugiperda); experiment: Spodoptera frugiperda test; assay type: in vivo; settings: active compound concentration 500 ppm, after 7 days, dipped cabbage leaves
Protocol: (§1) Spodoptera Frugiperda Test Solvent: 7 parts by weight of dimethylformamide Emulsifier: 2 parts by weight of alkylaryl polyglycol ether To produce a suitable preparation of active compound, 1 part by weight of active compound is mixed with the stated amounts of solvent and emulsifier, and the concentrate is diluted with emulsifier-containing water to the desired concentration. Cabbage leaves (Brassica oleracea) are treated by being dipped into the preparation of active compound of the desired concentration and are populated with caterpillars of the army worm (Spodoptera frugiperda) while the leaves are still moist. After the desired period of time, the kill in % is determined. 100% means that all caterpillars have been killed; 0% means that none of the caterpillars have been killed.

[3] = test system: larvae of the mustard beetle (Phaedon cochleariae); experiment: Phaedon larvae test; assay type: in vivo; settings: active compound concentration 500 ppm, after 7 days, dipped cabbage leaves
Protocol: as §1, with “Phaedon Larvae Test” for “Spodoptera Frugiperda Test”, “with larvae” for “with caterpillars”, “the mustard beetle (Phaedon cochleariae)” for “the army worm (Spodoptera frugiperda)”, “all beetle larvae” for “all caterpillars”, “the beetle larvae” for “the caterpillars”

[4] = HPLC, reversed-phase C 18, 43° C., acidic range pH 2.3, 0.1% aqueous phosphoric acid/acetonitrile
[5] = reversed-phase C18 HPLC column, HPLC, reversed-phase C 18, 43° C., acidic range pH 2.3, 0.1% aqueous phosphoric acid/acetonitrile

Row | chromatographic logP [1, 5] | Molecule | kill in % [2] | other results
1 | – | 4-(5-tert-butyltetrazol-2-yl)nitrobenzene | – | logP (pH2) [1, 4]: 2.20
2 | – | N#Cc1cnn(CC(=O)c2ccc(Cl)cc2)c1 [2-(4-cyanopyrazol-1-yl)-4′-chloroacetophenone] | – | chromatographic logP [1, 4]: 2.2
3 | 2.11 | N#Cc1cnn(C2CNN=C2c2ccc(Cl)cc2)c1 (stereo not drawn) [3-(4-chlorophenyl)-4-(4-cyanopyrazol-1-yl)-4,5-dihydro-1H-pyrazole] | – | –
4 | 1.69 | CC(C)(C)n1nnc(-c2ccc(N)cc2)n1 [4-(2-tert-butyltetrazol-5-yl)aniline] | – | –
5 | 2.54 | CC(C)(C)c1noc(-c2ccc(N)cc2)n1 [4-(3-tert-butyl[1,2,4]oxadiazol-5-yl)aniline] | – | –
6 | 2.31 | CC(C)(C)c1nc(-c2ccc(N)cc2)no1 [4-(5-tert-butyl[1,2,4]oxadiazol-3-yl)aniline] | – | –
7 | 2.27 | CC(C)(C)c1nnn(-c2ccc(N)cc2)n1 [4-(5-tert-butyltetrazol-2-yl)aniline] | – | –
8 | 4.11 | N#Cc1cnn(C2CN(C(=O)Nc3ccc(-c4ccccc4)cc3)N=C2c2ccc(Cl)cc2)c1 (stereo not drawn) [Compound 1, N-(4-phenyl)-3-(4-chlorophenyl)-4-(4-cyanopyrazol-1-yl)-4,5-dihydro-1-pyrazolecarboxanilide] | 100% | –
9 | – | CC(C)(C)c1nc(-c2ccc(NC(=O)N3CC(n4cc(C#N)cn4)C(c4ccc(Cl)cc4)=N3)cc2)no1 (stereo not drawn) [Compound 2, N-[4-(5-tert-butyl[1.2.4]oxadiazol-3-yl)-phenyl]-3-(4-chlorophenyl)-4-(4-cyanopyrazol-1-yl)-4,5-dihydro-1-pyrazolecarboxamide] | 100% | logP (pH2) ([1]; pH 2.3): 4.33; kill in % [3]: 100%
10 | – | CC(C)(C)c1noc(-c2ccc(NC(=O)N3CC(n4cc(C#N)cn4)C(c4ccc(Cl)cc4)=N3)cc2)n1 (stereo not drawn) [Compound 3, N-[4-(3-tert-butyl[1,2,4]oxadiazol-5-yl)-phenyl]-3-(4-chlorophenyl)-4-(4-cyanopyrazol-1-yl)-4,5-dihydro-1-pyrazolecarbox-amide] | 100% | logP (pH2) ([1]; pH 2.3): 4.38
11 | 3.91 | CC(C)(C)n1nnc(-c2ccc(NC(=O)N3CC(n4cc(C#N)cn4)C(c4ccc(Cl)cc4)=N3)cc2)n1 (stereo not drawn) [Compound 4, N-[4-(2-tert-butyltetrazol-5-yl)phenyl]-3-(4-chlorophenyl)-4-(4-cyanopyrazol-1-yl)-4,5-dihydro-1-pyrazolecarboxamide] | 100% | kill in % [3]: 100%
12 | 4.27 | CC(C)(C)c1nnn(-c2ccc(NC(=O)N3CC(n4cc(C#N)cn4)C(c4ccc(Cl)cc4)=N3)cc2)n1 (stereo not drawn) [Compound 5, N-[4-(5-tert-butyltetrazol-2-yl)phenyl]-3-(4-chlorophenyl)-4-(4-cyanopyrazol-1-yl)-4,5-dihydro-1-pyrazolecarboxamide] | – | –
